Measured values reported in ChEMBL document CHEMBL1671662, “In vitro activities of telavancin and six comparator agents against anaerobic bacterial isolates” (2009).

Experiments:
Assay type in all cases: functional
[1] = system: Streptococcus constellatus; assay: Antibacterial activity against Streptococcus constellatus by CLSI M11-A6 agar dilution method in presence of beta-lactamase inhibitor Sulbactam
Streptococcus anginosus = assay: Antibacterial activity against Streptococcus anginosus by CLSI M11-A6 agar dilution method in presence of beta-lactamase inhibitor Sulbactam
Ruminococcus torques = assay: Antibacterial activity against Ruminococcus torques by CLSI M11-A6 agar dilution method in presence of beta-lactamase inhibitor Sulbactam; conditions: Mediterraneibacter torques
Phocaeicola vulgatus = assay: Antibacterial activity against Bacteroides vulgatus by CLSI M11-A6 agar dilution method in presence of beta-lactamase inhibitor Sulbactam
[2] = system: Ruminococcus flavefaciens; assay: Antibacterial activity against Ruminococcus flavefaciens by CLSI M11-A6 agar dilution method in presence of beta-lactamase inhibitor Sulbactam
Bifidobacterium breve = assay: Antibacterial activity against Bifidobacterium breve by CLSI M11-A6 agar dilution method in presence of beta-lactamase inhibitor Sulbactam
Bilophila wadsworthia = assay: Antibacterial activity against Bilophila wadsworthia by CLSI M11-A6 agar dilution method in presence of beta-lactamase inhibitor Sulbactam
[3] = system: Paraclostridium bifermentans; assay: Antibacterial activity against Clostridium bifermentans by CLSI M11-A6 agar dilution method in presence of beta-lactamase inhibitor Sulbactam
Clostridium tertium = assay: Antibacterial activity against Clostridium tertium by CLSI M11-A6 agar dilution method in presence of beta-lactamase inhibitor Sulbactam
Bacteroides fragilis = assay: Antibacterial activity against Bacteroides fragilis by CLSI M11-A6 agar dilution method in presence of beta-lactamase inhibitor Sulbactam
Holdemania filiformis = assay: Antibacterial activity against Holdemania filiformis by CLSI M11-A6 agar dilution method in presence of beta-lactamase inhibitor Sulbactam
[4] = system: Streptococcus intermedius; assay: Antibacterial activity against Streptococcus intermedius by CLSI M11-A6 agar dilution method in presence of beta-lactamase inhibitor Sulbactam
Clostridium sp. = assay: Antibacterial activity against Clostridium sp. by CLSI M11-A6 agar dilution method in presence of beta-lactamase inhibitor Sulbactam
Clostridium subterminale = assay: Antibacterial activity against Clostridium subterminale by CLSI M11-A6 agar dilution method in presence of beta-lactamase inhibitor Sulbactam
[5] = system: Bifidobacterium adolescentis; assay: Antibacterial activity against Bifidobacterium adolescentis by CLSI M11-A6 agar dilution method in presence of beta-lactamase inhibitor Sulbactam
Clostridium butyricum = assay: Antibacterial activity against Clostridium butyricum by CLSI M11-A6 agar dilution method in presence of beta-lactamase inhibitor Sulbactam
Blautia producta = assay: Antibacterial activity against Ruminococcus productus by CLSI M11-A6 agar dilution method in presence of beta-lactamase inhibitor Sulbactam
Ruminococcus obeum = assay: Antibacterial activity against Ruminococcus obeum by CLSI M11-A6 agar dilution method in presence of beta-lactamase inhibitor Sulbactam; conditions: Blautia obeum
[6] = system: Clostridium celerecrescens; assay: Antibacterial activity against Clostridium celerecrescens by CLSI M11-A6 agar dilution method in presence of beta-lactamase inhibitor Sulbactam; conditions: Lacrimispora celerecrescens
[7] = system: Catenibacterium mitsuokai; assay: Antibacterial activity against Catenibacterium mitsuokai by CLSI M11-A6 agar dilution method in presence of beta-lactamase inhibitor Sulbactam
Clostridium hathewayi = assay: Antibacterial activity against Clostridium hathewayi by CLSI M11-A6 agar dilution method in presence of beta-lactamase inhibitor Sulbactam; conditions: Hungatella hathewayi
[8] = system: Parabacteroides distasonis; assay: Antibacterial activity against Parabacteroides distasonis by CLSI M11-A6 agar dilution method in presence of beta-lactamase inhibitor Sulbactam
Prevotella buccae = assay: Antibacterial activity against Prevotella buccae by CLSI M11-A6 agar dilution method in presence of beta-lactamase inhibitor Sulbactam; conditions: Segatella buccae
Thomasclavelia ramosa = assay: Antibacterial activity against Clostridium ramosum by CLSI M11-A6 agar dilution method in presence of beta-lactamase inhibitor Sulbactam
Parvimonas micra = assay: Antibacterial activity against Peptostreptococcus micros by CLSI M11-A6 agar dilution method in presence of beta-lactamase inhibitor Sulbactam
Clostridium bolteae = assay: Antibacterial activity against Clostridium bolteae by CLSI M11-A6 agar dilution method in presence of beta-lactamase inhibitor Sulbactam; conditions: Enterocloster bolteae
Clostridium spiroforme = assay: Antibacterial activity against Clostridium spiroforme by CLSI M11-A6 agar dilution method in presence of beta-lactamase inhibitor Sulbactam; conditions: Thomasclavelia spiroformis
Odoribacter splanchnicus = assay: Antibacterial activity against Bacteroides splanchnicus by CLSI M11-A6 agar dilution method in presence of beta-lactamase inhibitor Sulbactam
Coriobacterium = assay: Antibacterial activity against […] by CLSI M11-A6 agar dilution method in presence of beta-lactamase inhibitor Sulbactam
Hoylesella oralis = assay: Antibacterial activity against Prevotella oralis by CLSI M11-A6 agar dilution method in presence of beta-lactamase inhibitor Sulbactam
[9] = system: Coprobacillus cateniformis; assay: Antibacterial activity against Coprobacillus cateniformis by CLSI M11-A6 agar dilution method in presence of beta-lactamase inhibitor Sulbactam
Clostridium bartlettii = assay: Antibacterial activity against Clostridium bartlettii by CLSI M11-A6 agar dilution method in presence of beta-lactamase inhibitor Sulbactam; conditions: Intestinibacter bartlettii
Prevotella corporis = assay: Antibacterial activity against Prevotella corporis by CLSI M11-A6 agar dilution method in presence of beta-lactamase inhibitor Sulbactam
Blautia luti = assay: Antibacterial activity against Ruminococcus luti by CLSI M11-A6 agar dilution method in presence of beta-lactamase inhibitor Sulbactam
[10] = system: Peptoniphilus asaccharolyticus; assay: Antibacterial activity against Peptoniphilus asaccharolyticus by CLSI M11-A6 agar dilution method in presence of beta-lactamase inhibitor Sulbactam

Compound: CC1(C)S[C@@H]2[C@H](NC(=O)[C@H](N)c3ccccc3)C(=O)N2[C@H]1C(=O)O [AMPICILLIN]
- MIC50 [1]: 0.5 µg/mL
- MIC90 [1]: 0.5 µg/mL
- MIC50 (Streptococcus anginosus): 0.5 µg/mL
- MIC90 (Streptococcus anginosus): 0.5 µg/mL
- MIC50 (Ruminococcus torques): ≤ 0.12 µg/mL
- MIC90 (Ruminococcus torques): 1 µg/mL
- MIC50 (Phocaeicola vulgatus): 8 µg/mL
- MIC90 (Phocaeicola vulgatus): 16 µg/mL
- MIC50 [2]: ≤ 0.12 µg/mL
- MIC90 [2]: 1 µg/mL
- MIC50 (Bifidobacterium breve): 0.25 µg/mL
- MIC90 (Bifidobacterium breve): 1 µg/mL
- MIC50 (Bilophila wadsworthia): 2 µg/mL
- MIC90 (Bilophila wadsworthia): 4 µg/mL
- MIC50 [3]: 0.25 µg/mL
- MIC90 [3]: 1 µg/mL
- MIC50 (Clostridium tertium): 0.25 µg/mL
- MIC90 (Clostridium tertium): 1 µg/mL
- MIC50 (Bacteroides fragilis): 1 µg/mL
- MIC90 (Bacteroides fragilis): 8 µg/mL
- MIC50 (Holdemania filiformis): 0.25 µg/mL
- MIC90 (Holdemania filiformis): 1 µg/mL
- MIC50 [4]: 0.5 µg/mL
- MIC90 [4]: 0.5 µg/mL
- MIC50 (Clostridium sp.): 0.25 µg/mL
- MIC90 (Clostridium sp.): 1 µg/mL
- MIC50 (Clostridium subterminale): ≤ 0.12 µg/mL
- MIC90 (Clostridium subterminale): 0.25 µg/mL
- MIC50 [5]: 0.25 µg/mL
- MIC90 [5]: 1 µg/mL
- MIC50 (Clostridium butyricum): 0.25 µg/mL
- MIC90 (Clostridium butyricum): 1 µg/mL
- MIC50 (Blautia producta): ≤ 0.12 µg/mL
- MIC90 (Blautia producta): 1 µg/mL
- MIC50 (Ruminococcus obeum): ≤ 0.12 µg/mL
- MIC90 (Ruminococcus obeum): 0.25 µg/mL
- MIC50 [6]: 0.25 µg/mL
- MIC90 [6]: 1 µg/mL
- MIC50 [7]: 0.25 µg/mL
- MIC90 [7]: 1 µg/mL
- MIC50 (Clostridium hathewayi): 2 µg/mL
- MIC90 (Clostridium hathewayi): 2 µg/mL
- MIC50 [8]: 8 µg/mL
- MIC90 [8]: 32 µg/mL
- MIC50 (Prevotella buccae): ≤ 0.12 µg/mL
- MIC90 (Prevotella buccae): 2 µg/mL
- MIC50 (Thomasclavelia ramosa): ≤ 0.12 µg/mL
- MIC90 (Thomasclavelia ramosa): 0.5 µg/mL
- MIC50 (Parvimonas micra): 0.25 µg/mL
- MIC90 (Parvimonas micra): 0.5 µg/mL
- MIC50 (Clostridium bolteae): 8 µg/mL
- MIC90 (Clostridium bolteae): 16 µg/mL
- MIC50 (Clostridium spiroforme): 0.25 µg/mL
- MIC90 (Clostridium spiroforme): 1 µg/mL
- MIC (Odoribacter splanchnicus): 1 µg/mL
- MIC50 (Odoribacter splanchnicus): 1 µg/mL
- MIC90 (Odoribacter splanchnicus): 4 µg/mL
- MIC50 (Coriobacterium): 0.25 µg/mL
- MIC90 (Coriobacterium): 1 µg/mL
- MIC50 (Hoylesella oralis): ≤ 0.12 µg/mL
- MIC90 (Hoylesella oralis): 2 µg/mL
- MIC50 [9]: 0.25 µg/mL
- MIC90 [9]: 1 µg/mL
- MIC50 (Clostridium bartlettii): 0.25 µg/mL
- MIC90 (Clostridium bartlettii): 1 µg/mL
- MIC50 (Prevotella corporis): ≤ 0.12 µg/mL
- MIC90 (Prevotella corporis): 2 µg/mL
- MIC50 (Blautia luti): ≤ 0.12 µg/mL
- MIC90 (Blautia luti): 1 µg/mL
- MIC50 [10]: 0.25 µg/mL
- MIC90 [10]: 0.5 µg/mL
